In experiment [1] the test system is P388 murine leukemia cell line. Put plainly: P388 cytotoxicity, cellular viability by ATP-Lite. It is filed as cell-based. As to conditions: compound concentration required to inhibit growth by 50%, intracellular ATP. How it is done: A P388 murine leukemia cell line was obtained from NCI, Frederick, Md. P388 cells were cultured in RPMI-1640 supplemented with 10% fetal bovine serum, 2 mM Glutamax, 1 mM sodium pyruvate, 0.1 mM non-essential amino acids and 10 mM HEPES. Cells were grown at 37° C. in a humidified 5% CO2 atmosphere. Exponentially growing P388 cells were plated at 5,000 cells/well in a 96-well flat-bottomed microtiter plate (Corning, Costar #3595). […] Cellular viability was determined 72 hours later by measuring intracellular ATP with ATP-Lite assay system. The effect of compounds on cell viability was calculated by comparing the ATP levels of cells exposed to test compound with those of cells exposed to DMSO. A semi-log plot of relative ATP levels versus compound concentration was used to calculate the compound concentration required to inhibit growth by 50% (IC50). Data was analyzed by Prism software (GraphPad; San Diego, Calif.) by fitting it to a sigmoidal dose response curve.

The subject of experiment [2] is P388/ADR cell lines (overexpress the multidrug resistance pump MDR-1). As to the kind of experiment: Multidrug resistant cell assay, cell viability by ATP-lite. In kind it is cell-based, murine. An excerpt:
Cytotoxicity of compounds in multidrug resistant cells can be determined by administering compounds to cell lines that overexpress the multidrug resistance pump MDR-1 and determining the viability of the cell lines. P388/ADR cell lines are known to overexpress the multidrug resistance pump MDR-1 (also known as P-glycoprotein-1; Pgp-1).
P388/ADR cell lines are obtained from American Type Culture Collection (Manassas, Va.) and maintained in RPMI-1640 media supplemented with 10% FCS, 10 units/mL penicillin and streptomycin, 2 mM Glutamax and 1 mM sodium pyruvate (Invitrogen Corporation, Carlsbad, Calif.). For compound testing, cells are plated in 96 well dishes at a concentration of 1.5×10^4 cells/well. Cells are allowed to adhere to the plate overnight and then incubated with compounds at final concentrations ranging from 0.13 nM to 10 μM for 72 hours. Cell viability is then assessed using the ATP-lite reagent (Perkin Elmer, Foster City, Calif.). Plates are read on a Wallac Topcount luminescence reader (Perkin Elmer, Foster City, Calif.) and the results graphed in Prism software (Graphpad Software, Inc., San Diego, Calif.). Non-linear regression with variable slope analysis is performed to obtain IC50 concentration values.

Where [3] appears, read: Mus musculus, 72 h, multidrug resistant cells overexpressing MDR-1.
The mark [4] stands for this setting: multidrug resistant cells overexpressing MDR-1, 72 hours.

SMILES strings stand for the structures.

The IC50 is the midpoint of a concentration-inhibition curve. Take `COc1ccc(N(C)c2nc(NCCNC(=O)CNC(=O)OC(C)(C)C)nc3ccccc23)cc1` [Example 31, [(2-{4-[(4-Methoxy-phenyl)-methyl-amino]-quinazolin-2-ylamino}-ethylcarbamoyl)-methyl]-carbamic acid tert-butyl ester]: the IC50 came out at 1300 nM in experiment [1] (Mus musculus, P388, 72 h) and 1100 nM in experiment [2] (setting [3]).
For the molecule `COc1ccc(N(C)c2nc(NCCOC(=O)[C@H](Cc3c[nH]c4ccccc34)NC(=O)OCc3ccccc3)nc3ccccc23)cc1` [Example 29, (S)-2-Benzyloxycarbonylamino-3-(1H-indol-3-yl)-propionic acid 2-{4-[(4-methoxy-phenyl)-methyl-amino]-quinazolin-2-ylamino}-ethyl ester], the IC50 in experiment [1] (Mus musculus, P388, 72 h) was determined as 32 nM; in experiment [2] (setting [3]), 40 nM.
For `COc1ccc(N(C)c2nc(NCCNCCNCCN)nc3ccccc23)cc1` [Example 4, N^2-{2-[2-(2-Amino-ethylamino)-ethylamino]-ethyl}-N^4-(4-methoxy-phenyl)-N^4-methyl-quinazoline-2,4-diamine], in that order: 550 nM and 530 nM.
For `COC(=O)[C@H](Cc1ccc(O)cc1)Nc1nc(N(C)c2ccc(OC)cc2)c2ccccc2n1` [Example 34, (S)-3-(4-Hydroxy-phenyl)-2-{4-[(4-methoxy-phenyl)-methyl-amino]-quinazolin-2-ylamino}-propionic acid methyl ester] the same measures were 36 nM and 43 nM.
In the case of `COCCOCCOc1nc(N(C)c2ccc(OC)cc2)c2ccccc2n1` [Example 1, {2-[2-(2-Methoxy-ethoxy)-ethoxy]-quinazolin-4-yl}-(4-methoxy-phenyl)-methyl-amine], the IC50 was 490 nM in experiment [1] (Mus musculus, P388, 72 h) and 580 nM in experiment [2] (setting [3]).
Consider `COc1ccc(N(C)c2nc(NCCNC(N)=O)nc3ccccc23)cc1` [Example 40, (2-{4-[(4-Methoxy-phenyl)-methyl-amino]-quinazolin-2-ylamino}-ethyl)-urea], for which the half-maximal inhibitory concentration (IC50) turned out to be 500 nM in experiment [1] (Mus musculus, P388, 72 h) and 600 nM in experiment [2] (setting [3]).
For the molecule `COc1ccc(N(C)c2nc(NCCOC(=O)[C@H](N)CCCCN)nc3ccccc23)cc1` [Example 15, (R)-2,6-Diamino-hexanoic acid 2-{4-[(4-methoxy-phenyl)-methyl-amino]-quinazolin-2-ylamino}-ethyl ester], the half-inhibitory concentration (IC50) in experiment [1] (Mus musculus, P388, 72 h) is 11 nM; in experiment [1] (72 hours), 15 nM; in experiment [2] (setting [3]), 33 nM; in experiment [2] (setting [4]) it was 22 nM.
Regarding `COc1ccc(N(C)c2nc(NCCNC(=O)OC(C)(C)C)nc3ccccc23)cc1OC` [Example 14, (2-{4-[(3,4-Dimethoxy-phenyl)-methyl-amino]-quinazolin-2-ylamino}-ethyl)-carbamic acid tert-butyl ester], the IC50 in experiment [1] (Mus musculus, P388, 72 h) was 300 nM; in experiment [1] (72 hours) it was 340 nM; in experiment [2] (setting [3]), 340 nM; in experiment [2] (setting [4]), 350 nM.
On to `COc1ccc(N(C)c2nc(NCCNC(=O)OC(C)(C)C)nc3ccc(OC)cc23)cc1` [Example 16, (2-{6-Methoxy-4-[(4-methoxy-phenyl)-methyl-amino]-quinazolin-2-ylamino}-ethyl)-carbamic acid tent-butyl ester], for which the half-maximal inhibitory concentration (IC50) in experiment [1] (Mus musculus, P388, 72 h) amounted to 4000 nM; in experiment [1] (72 hours) it was 2400 nM; in experiment [2] (setting [3]) it was 3400 nM; in experiment [2] (setting [4]), 2000 nM.
Turning to `COc1ccc(N(C)c2nc(NCCOC(=O)[C@@H](N)CCSC)nc3ccccc23)cc1` [Example 27, (S)-2-Amino-4-methylsulfanyl-butyric acid 2-{4-[(4-methoxy-phenyl)-methyl-amino]-quinazolin-2-ylamino}-ethyl ester], the half-maximal inhibitory concentration (IC50) was 220 nM in experiment [1] (Mus musculus, P388, 72 h) and 220 nM in experiment [2] (setting [3]).
`COc1ccc(N(C)c2nc(NCC(O)CN)nc3ccccc23)cc1` (stereo not shown) [Example 44, 1-Amino-3-{4-[(4-methoxy-phenyl)-methyl-amino]-quinazolin-2-ylamino}-propan-2-ol]: the IC50 turned out to be 37 nM in experiment [1] (Mus musculus, P388, 72 h) and 57 nM in experiment [2] (setting [3]).

Values taken from patent US20100068197A1, “PHARMACEUTICAL COMPOUNDS AS INHIBITORS OF CELL PROLIFERATION AND THE USE THEREOF” (Myriad Pharmaceuticals, Inc., priority 2008, published 2010).
